Reference: patent publication US20140105919A1, “SYNERGISTIC INHIBITION OF ERBB2/ERBB3 SIGNAL PATHWAYS IN THE TREATMENT OF CANCER” (Institute for Cancer Research d/b/a The Research Institute …, priority 2011, published 2014)

Legend:
Type in all cases: cell-based
BT474 cells = assay: Cell sensitization to MM-111 and gamma-secretase inhibitor, CellTiter-Blue viability; details: BT474, 72 hrs; Compound E 1 μM, MM-111 2 μM, alone or combined; vs DMSO
Protocol: Inhibition of the Notch pathway was carried out with a compound. Breast cancer cells (BT474 cells) were plated in 96-well plates in DMEM/F12 media with 1% FBS and incubated in a humidified CO2 incubator at 37° C. for 24 hours prior to drug treatment. The media was replaced with DMEM/F12 media with 1% FBS containing DMSO, 1 μM Compound E (Santa Cruz, SC-221433), 2 μM MM-111 (Merrimack Pharmaceuticals), or combined Compound E and MM-111. Cells were incubated in the presence of drug for 72 hrs. CellTiter-Blue® (Promega) was used to measure cell viability according to the standard protocol. The total incubation time in the presence of CellTiter-Blue® was 4 hours, and fluorescence was measured using a Perkin Elmer Envision Plate Reader.

[1] = tested on: Notch signaling (CBF1 reporter) in BT-474 cells; assay: Notch-dependent activation of CBF-1 reporter (Dual-Luciferase Assay); details: MM-111 and Compound E
Protocol: BT-474 cells were co-transfected with CBF1::firefly luciferase and pRL-TK (renilla luciferase) as an internal control for transfection efficiency. Cells were then treated with MM-111, MM-111 and Compound E, or Rituximab (control antibody), and the ratio of firefly/renilla expression was measured using the Dual-Luciferase Assay (Promega) according to the manufacturer's instructions.

[2] = tested on: Notch target genes in MB-361/DYT2 cells; assay: Real time PCR of endogenous Notch target genes HES1, HES5, HEY1; details: MB361/DYT2; compared to untreated, DMSO or Rituximab
Protocol: MB-361/DYT2 cells were left untreated (NT) or treated with DMSO (vehicle for Compound E), rituximab (control antibody), Compound E, MM-111, or MM-111 and Compound E. Total RNA was extracted from cells using the RNeasy kit (Qiagen). Total RNA was reverse transcribed to cDNA, and real time PCR was performed, using ABI primer/probe sets, on cDNAs to detect relative expression of the validated Notch target genes HES1 (ABI Assay ID Hs00172878_m1), HES5 (ABI Assay ID Hs01387463_g1), or HEY1 (ABI Assay ID Hs01114113_m1).

[3] = tested on: MB361/DYT2 breast cancer cells; assay: secondary validation screen with single siGENOME siRNAs with or without MM-111, CellTiter-Blue viability; design: Vehicle (viability score) / Drug (viability score): scale not given here; details: for Ratio (drug:vehicle viability): single siRNA; for Drug (viability score): single siRNA and MM-111; for Vehicle (viability score): single siRNA only (vehicle)
Protocol: Subsets of targets that met criteria of being expressed in the cells and having an FDR of <5% or being expressed in the cells, having an FDR <20%, and having a known connection to ErbB signaling, were validated in a secondary screen in which MB361/DYT2 breast cancer cells were treated with siRNA molecules from the Dharmacon® siGENOME library (Dharmacon, Inc.). Parallel cells were treated with the siRNA only (vehicle) or both the siRNA and the ErbB2/ErbB3 bispecific antibody MM-111, and sensitization of the cells was measured by the CellTiter-Blue® (Promega) viability assay.

Compound | cell viability / cell killing (BT474 cells) | MM-111-induced CBF1 reporter activity [1] | expression of Notch target genes HES1, HES5, and HEY1 [2] | Ratio (drug:vehicle viability) [3] | Drug (viability score) [3] | Vehicle (viability score) [3]
C[C@H](NC(=O)Cc1cc(F)cc(F)c1)C(=O)N[C@H]1N=C(c2ccccc2)c2ccccc2N(C)C1=O [Compound E] | no effect on viability | the activity is blocked | reduced |  |  | 
CAUAAGCCCUGCAAGAAUG (listed as RNA, chemistry not given here; listed as Homo sapiens) [SEQ ID NO: 17, Dharmacon siGENOME siRNA targeting DLL1] |  |  |  | 0.823 | 0.812 | 0.987
CCAAAGGCCUGACCGUUAA (listed as RNA, chemistry not given here; listed as Homo sapiens) [SEQ ID NO: 26, Dharmacon siGENOME siRNA targeting AAMP] |  |  |  | 0.844 | 0.821 | 0.973
CCACACGGUUUAAGUCUAU (listed as RNA, chemistry not given here; listed as Homo sapiens) [SEQ ID NO: 50, Dharmacon siGENOME siRNA targeting RFNG] |  |  |  | 0.939 | 1.250 | 1.331
GAAGAUACUUGGCACUAUU (listed as RNA, chemistry not given here; listed as Homo sapiens) [SEQ ID NO: 21, Dharmacon siGENOME siRNA targeting SC4MOL] |  |  |  | 0.877 | 0.955 | 1.089
GCAGCAAGACCAAGAAAUC (listed as RNA, chemistry not given here; listed as Homo sapiens) [SEQ ID NO: 57, Dharmacon siGENOME siRNA targeting CYR61] |  |  |  | 0.856 | 0.846 | 0.988
GGGUCGCUGUGAUGAAAUU (listed as RNA, chemistry not given here; listed as Homo sapiens) [SEQ ID NO: 45, Dharmacon siGENOME siRNA targeting DCI] |  |  |  | 0.762 | 0.627 | 0.823
GGUGUUGUCUGGUCAGUAA (listed as RNA, chemistry not given here; listed as Homo sapiens) [SEQ ID NO: 19, Dharmacon siGENOME siRNA targeting NLK] |  |  |  | 0.776 | 0.991 | 0.993
GGUUGUGCCUGGAGGUGGA (listed as RNA, chemistry not given here; listed as Homo sapiens) [SEQ ID NO: 24, Dharmacon siGENOME siRNA targeting TPT1] |  |  |  | 0.845 | 0.775 | 
